Data taken from ChEMBL document CHEMBL1201862, “PubChem BioAssay data set” (2004).
Calls of active or inactive are those of the source.

Assays:
cells [1] = format: functional, cell-based
cells [2] = format: functional, cell-based; remark: listed apart in the source
Cytochrome P450 1A2 = biological target: T1, Cytochrome P450 1A2 (Homo sapiens, UniProt P05177);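 further: PubChem cytochrome P450 panel assay, CYP1A2 panel member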
T1 sequence (P05177 whole entry): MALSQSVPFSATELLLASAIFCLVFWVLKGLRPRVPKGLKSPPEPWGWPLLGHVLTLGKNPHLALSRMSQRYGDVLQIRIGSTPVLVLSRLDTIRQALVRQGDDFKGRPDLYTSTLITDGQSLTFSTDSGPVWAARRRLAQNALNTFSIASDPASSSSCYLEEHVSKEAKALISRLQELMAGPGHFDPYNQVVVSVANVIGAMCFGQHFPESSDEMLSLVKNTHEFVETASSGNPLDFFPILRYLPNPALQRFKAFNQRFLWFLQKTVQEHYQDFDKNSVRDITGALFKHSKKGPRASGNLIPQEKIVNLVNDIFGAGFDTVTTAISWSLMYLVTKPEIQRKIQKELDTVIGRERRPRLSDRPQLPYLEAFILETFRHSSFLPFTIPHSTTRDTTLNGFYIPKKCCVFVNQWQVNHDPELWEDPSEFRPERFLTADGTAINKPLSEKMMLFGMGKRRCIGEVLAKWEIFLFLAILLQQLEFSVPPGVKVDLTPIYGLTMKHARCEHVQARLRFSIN

[3] = biological target: Luciferin 4-monooxygenase (Photinus pyralis, UniProt P08659); assay: firefly luciferase enzyme inhibitors, dose response, biochemical, luminescence (AID 1891)
Cytochrome P450 2C19 = Cytochrome P450 2C19 (Homo sapiens, UniProt P33261); assay: Cytochrome panel assay with activity outcomes. Panel member name: p450-cyp2c19 Compounds with AC50 equal or less than 10 uM are considered active; format: functional; settings: read-out: AC50
[4] = Luminescence Cell-Based Dose Confirmation HTS to Identify Inhibitors of Platelet Dense Granule Release. [Related pubchem assays: 1663 (Primary HTS), 1678 (Summary of Project)]; format: functional
Cytochrome P450 2C9 = Cytochrome P450 2C9 (Homo sapiens, UniProt P11712)
[5] = cytotoxicity in HEK-293T cells, dose response, cytotoxicity control for TCR NF-kB inhibitor project, luminescence, T-cell screen hits (AID 489026); format: functional, cell-based;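 further: cells exposed to compound about 14 hours before the viability readout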
[6] = Luminescence Cell-Based Dose Response HTS to Identify Inhibitors of 5'UTR Stem-Loop Driven Prion Protein mRNA Translation in H4 Neuroglioblastoma Cells. [Related pubchem assays: 1827 (Project Summary), 1813 (Primary HTS)]; format: functional
[7] = inhibitors of firefly luciferase expression or activity, dose response, H4 neuroglioma cells, luminescence (AID 1990); format: functional, cell-based
[8] = inhibitors of intracellular T. cruzi replication, confirmation, NIH3T3 host cells, beta-gal luminescence (AID 2044); format: functional, cell-based;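 further: intracellular parasites grown in NIH/3T3 mouse fibroblasts as host cells; luminescent beta-galactosidase reporter signal from transgenic T. cruzi replicating inside host cells; inhibitors lower the luminescence signal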
[9] = inhibitors of SNCA 5'UTR-driven reporter translation, confirmation, H4 neuroglioma cells, luminescence (AID 1988); format: functional, cell-based
Coagulation factor XII = biological target: T2, Coagulation factor XII (Homo sapiens, UniProt P00748); format: functional;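 further: activated factor XIIa alpha cleaving a fluorogenic AMC peptide substrate; inhibitor potency from loss of enzyme activity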
T2 sequence (P00748 whole entry): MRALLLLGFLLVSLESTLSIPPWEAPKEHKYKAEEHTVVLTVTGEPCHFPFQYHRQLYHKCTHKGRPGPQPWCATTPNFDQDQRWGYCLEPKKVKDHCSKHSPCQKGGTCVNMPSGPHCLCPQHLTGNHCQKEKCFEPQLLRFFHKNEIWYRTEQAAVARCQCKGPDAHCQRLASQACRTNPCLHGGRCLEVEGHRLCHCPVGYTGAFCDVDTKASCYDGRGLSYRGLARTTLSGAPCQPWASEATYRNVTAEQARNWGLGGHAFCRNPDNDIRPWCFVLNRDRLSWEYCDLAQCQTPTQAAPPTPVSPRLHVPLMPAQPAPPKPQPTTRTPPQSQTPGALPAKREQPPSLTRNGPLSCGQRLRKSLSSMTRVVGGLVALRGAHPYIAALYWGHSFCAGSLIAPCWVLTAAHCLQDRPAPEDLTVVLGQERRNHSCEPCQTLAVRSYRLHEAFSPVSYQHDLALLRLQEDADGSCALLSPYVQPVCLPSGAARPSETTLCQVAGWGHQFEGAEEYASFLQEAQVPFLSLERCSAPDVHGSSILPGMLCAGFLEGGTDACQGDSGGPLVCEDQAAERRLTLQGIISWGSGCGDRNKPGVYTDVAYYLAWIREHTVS

BJ [10] = assay: cells; format: functional, cell-based; settings: Homo sapiens
[11] = cytotoxicity toward DRD oncogenic fibroblasts, dose response, cell-based, non-viral oncogenic, luminescence (AID 1934); format: functional; settings: Homo sapiens
BJ [12] = assay: cytotoxicity toward BJ-TERT fibroblasts, dose response, cell-based, RAS-independent, luminescence (AID 1933); format: functional; settings: Homo sapiens
BJ [13] = assay: cytotoxicity toward BJ-TERT-LT-ST fibroblasts, dose response, cell-based, RAS-independent, luminescence (AID 1935); format: functional; settings: Homo sapiens;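 further: BJ fibroblasts immortalized with TERT plus LT and ST oncogenes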

Cytochrome P450 2C19, sequence (P33261 whole entry): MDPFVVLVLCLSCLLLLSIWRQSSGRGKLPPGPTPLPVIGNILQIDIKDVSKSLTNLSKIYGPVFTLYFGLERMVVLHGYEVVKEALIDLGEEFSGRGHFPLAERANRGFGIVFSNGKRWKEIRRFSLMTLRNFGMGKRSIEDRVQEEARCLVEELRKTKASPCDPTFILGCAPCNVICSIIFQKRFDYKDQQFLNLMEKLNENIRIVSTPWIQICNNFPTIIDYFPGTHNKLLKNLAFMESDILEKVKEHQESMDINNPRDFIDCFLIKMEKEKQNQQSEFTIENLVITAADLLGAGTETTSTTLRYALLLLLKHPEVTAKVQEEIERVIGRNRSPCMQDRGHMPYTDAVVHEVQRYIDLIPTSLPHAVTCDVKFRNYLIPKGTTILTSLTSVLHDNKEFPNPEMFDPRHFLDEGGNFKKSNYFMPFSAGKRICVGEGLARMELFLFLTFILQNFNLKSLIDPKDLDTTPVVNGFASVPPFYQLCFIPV
Luciferin 4-monooxygenase, sequence (P08659 whole entry): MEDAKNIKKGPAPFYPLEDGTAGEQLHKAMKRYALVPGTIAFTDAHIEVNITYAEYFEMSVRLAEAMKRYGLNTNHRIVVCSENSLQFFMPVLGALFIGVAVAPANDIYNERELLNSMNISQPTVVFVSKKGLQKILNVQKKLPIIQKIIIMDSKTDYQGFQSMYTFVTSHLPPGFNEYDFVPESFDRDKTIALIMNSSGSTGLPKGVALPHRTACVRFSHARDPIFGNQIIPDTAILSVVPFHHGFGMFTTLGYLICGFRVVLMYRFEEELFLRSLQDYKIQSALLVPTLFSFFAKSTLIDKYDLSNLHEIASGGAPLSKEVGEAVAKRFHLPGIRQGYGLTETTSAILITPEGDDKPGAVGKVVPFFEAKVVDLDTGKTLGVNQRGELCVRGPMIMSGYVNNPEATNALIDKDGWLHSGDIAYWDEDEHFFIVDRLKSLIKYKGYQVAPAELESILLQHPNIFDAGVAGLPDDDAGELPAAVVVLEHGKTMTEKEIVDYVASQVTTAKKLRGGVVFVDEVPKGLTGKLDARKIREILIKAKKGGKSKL
Cytochrome P450 2C9, sequence (P11712 whole entry): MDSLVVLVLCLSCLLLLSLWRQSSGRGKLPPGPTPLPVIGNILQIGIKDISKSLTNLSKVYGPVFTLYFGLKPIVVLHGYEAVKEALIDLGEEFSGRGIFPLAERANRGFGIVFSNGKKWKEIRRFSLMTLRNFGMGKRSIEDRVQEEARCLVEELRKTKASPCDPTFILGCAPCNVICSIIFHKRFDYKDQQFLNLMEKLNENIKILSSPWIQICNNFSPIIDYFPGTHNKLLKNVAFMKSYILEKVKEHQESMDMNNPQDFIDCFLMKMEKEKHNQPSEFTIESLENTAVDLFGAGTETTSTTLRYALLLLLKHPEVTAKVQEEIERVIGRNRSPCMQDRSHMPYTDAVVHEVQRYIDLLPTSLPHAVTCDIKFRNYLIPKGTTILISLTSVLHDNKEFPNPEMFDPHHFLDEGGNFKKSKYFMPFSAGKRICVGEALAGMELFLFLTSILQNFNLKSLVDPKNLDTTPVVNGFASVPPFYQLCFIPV

CC(=O)NCCC(=O)Nc1cc(S(=O)(=O)N2CCOCC2)ccc1N1CCOCC1
EC50 (cells [1]): > 350 µM (not active)
EC50 (cells [2]): > 350 µM (not active)

Cc1c(C(c2cccc([N+](=O)[O-])c2O)c2c(C)n(C)n(-c3ccccc3)c2=O)c(=O)n(-c2ccccc2)n1C
AC50 (Cytochrome P450 1A2): 15.8 µM (inconclusive)
EC50 [3]: > 112 µM (not active)
AC50 (Cytochrome P450 2C19): 35.5 µM (inconclusive)
EC50 [4]: > 112 µM (not active)
AC50 (Cytochrome P450 2C9): 0.00562 µM (inconclusive)

Cc1c(C(=O)OCC(C)C)[nH]c2c1C(=O)CC(c1cccs1)C2 (stereo not drawn)
IC50 [5]: > 80 µM (inactive)
EC50 [6]: > 60 µM (not active)
EC50 [7]: 8.93 µM (inconclusive)
EC50 [8]: 4.91 µM (active)
EC50 [9]: 3.13 µM (active)

CCCCCCCCCC(=O)Nn1cnc2ccccc2c1=O
IC50 (Coagulation factor XII): > 50 µM (inactive)

COc1cc(Cl)c(C)cc1NC(=O)CSC
IC50 (Coagulation factor XII): > 50 µM (inactive)

O=C(C[n+]1cc(-c2ccccc2)n2c1CCC2)Nc1nc(-c2ccccc2)cs1
IC50 (Coagulation factor XII): > 50 µM (inactive)

COc1ccccc1CNC(=O)c1cccc(NC(=O)c2ccccc2)c1
EC50 (cells [1]): > 350 µM (not active)
EC50 (cells [2]): 56.2 µM (active)

CCN(Cc1ccccc1)C(=O)CCNS(=O)(=O)c1ccc2c(c1)CC(C)N2C(C)=O (stereo not drawn)
EC50 (cells [1]): > 350 µM (not active)
EC50 (cells [2]): > 350 µM (not active)

Cc1nc(-c2ccc(C(=O)Nc3ccccc3F)cc2)cs1
EC50 (BJ [10]): 10.8 µM (active)
EC50 [11]: 11 µM (active)
EC50 (BJ [12]): 13.7 µM (active)
EC50 (BJ [13]): 19.9 µM (active)
